Measurements from patent US5459256A, “Lipophilic, aminohydrolase-activated prodrugs” (priority 1991, dated 1995).
Entries after “also recorded” stand apart in the source; their conditions may differ.

System: HIV-1/IIIB (CD4^+ ATH8 cells)
Test: HIV cytopathic effect inhibition assay in ATH8 cells (% protection)
Format: cell-based
Settings: for inhibition at 10 µM: Human immunodeficiency virus 1, IIIB, ATH-8, 192 h
Protocol: HIV Cytopathic Effect Inhibition Assay.
The HIV cytopathic effect inhibition assay was performed as previously described. (Mitsuya, H. & Broder, S. Proc. Nat. Acad. Sci. USA 1986, 83, 1911) Briefly, 200,000 target CD4^+ ATH8 cells were exposed to cell-free HIV-1/IIIB at a dose of 43 (or 1087 for compound 1g) TCID50 (50% tissue culture infectious dose) for 1 h, resuspended in 2 ml of fresh culture media containing interleukin 2, and cultured at 37° C. with or without test compounds in 5% CO2 -containing humidified air. On day 8 in culture, the viable cells were counted by using the dye exclusion method. All compounds, including inactives, were evaluated a minimum of two times in separate experiments. Data reported in Table II are from representative tests. The % protection against the virus was determined by the following formula: 100 times [(the number of viable cells exposed to HIV-1 and cultured in the presence of the compound minus the number of viable cells exposed to HIV-1 and cultured in the absence of compound) divided by (the number of viable cells cultured alone minus the number of viable cells exposed to HIV-1 and cultured in the absence of the compound)]. The % toxicity of a compound on the target cells was determined by the following formula: 100 times [1 minus (the number of total viable cells cultured in the presence of the compound divided by the number of total viable cells cultured alone)]. Calculated percentages equal to or less than zero are expressed as 0%.
^a ATH8 cells were exposed to HIV1/IIIB per cell for 1 hr and
cultured in the presence of various concentrations of each compound. On
day 8, the total viable cells were counted. Orders of numbers in the
column for concentrations correspond to the orders of numbers in other

**Q.** How did the “% Protection” value (10 μM, with dCF (2 μM), 11520 min) turn out when `CNc1ncnc2c1ncn2[C@@H]1O[C@H](CO)C[C@@H]1F` [Compound 1f, N^6 -Methyl-9-(2'3'-dideoxy-2'-fluoro-β-D-arabinofuranosyl)adenine] was run?
**A.** The value was < 10%.

**Q.** What about the “anti-HIV activity in the presence of dCF (in words)” value (ATH8 cells, dCF added) of the same compound?
**A.** The value was “protection was either abolished or greatly decreased; also recorded: can have activity abolished”.

**Q.** What about the “anti-HIV activity (in words)” value (ATH8 cells, no additive) of the same compound?
**A.** The value was “that activity was reduced relative to 1a; also recorded: reproducible, albeit unspectacular, activity; also recorded: only moderate anti-HIV activity”.

**Q.** And the inhibition at 10 µM (10 μM, no additive (Table IV experiment))?
**A.** Its inhibition at 10 µM is 13%.

**Q.** And the inhibition at 10 µM (10 μM, with added ADA (0.7 U/ml))?
**A.** Its inhibition at 10 µM is 90%.
